These results are taken from patent publication US9617256B2 (priority 2007, dated 2017).

≈ marks a conversion by molar mass, not a printed value. Read-outs that look alike come from different tables or passages of the source. Where only a bound is given, the exact number is not on record here.

Experiment [1] deals with AECO001 (ATCC25922). Nature of the experiment: MIC broth microdilution, AECO001. It counts as cell-based, E. coli. The following applies: Escherichia coli. The protocol:
(§1) Bacterial isolates were cultivated from −70° C. frozen stocks by overnight passages at 35° C. in ambient air on Mueller-Hinton agar (Beckton Dickinson, Franklin Lakes, N.J.). Clinical isolates tested were obtained from various geographically diverse hospitals in the US and abroad (Focus Diagnostics, Herndon, Va. and JMI, North Liberty, Iowa). Quality control strains were from the American Type Culture Collection (ATCC; Rockville, Md.). Additional primary panel strains were generated using standard molecular biology techniques.
(§2) Minimum Inhibitory Concentrations (MICs) were determined by the broth microdilution method in accordance with the Clinical and Laboratory Standards Institute (CLSI) guidelines. In brief, organism suspensions were adjusted to a 0.5 McFarland standard to yield a final inoculum between 3×10^5 and 7×10^5 colony-forming units (CFU)/mL. Drug dilutions and inocula were made in sterile, cation adjusted Mueller-Hinton Broth (Beckton Dickinson). An inoculum volume of 100 μL was added to wells containing 100 μL of broth with 2-fold serial dilutions of drug. All inoculated microdilution trays were incubated in ambient air at 35° C. for 18-24 hours. […] Performance of the assay was monitored by the use of laboratory quality-control strains and levofloxacin, a compound with a defined MIC spectrum, in accordance with CLSI guidelines.
(§3) *AECO001 is ATCC25922, AECO063 is ATCC25922 bearing an acrAB mutation, APAE001 is ATCC27853, APAE006 is a strain of P. aeruginosa in which all efflux pumps are inactivated, APAE006+PMBN indicates MICs with the indicated strain in the presence of 8 micrograms per milliliter of polymyxin B nonapeptide, AABA1060 is a clinical isolate of Acinetobacter baumannii, ASAU001 is a laboratory strain of S. aureus (ATCC29213).

Experiment [2] relates to AECO063 (ATCC25922 bearing an acrAB mutation). Nature of the experiment: microbe, parasite or virus in culture. It counts as cell-based, E. coli. The following applies: Escherichia coli, ATCC25922, read-out: MIC AECO063. Here is the method:
as §1, §2, §3

Experiment [3] relates to APAE001 (ATCC27853). Nature of the experiment: MIC broth microdilution, APAE001. The class given is cell-based, P. aeruginosa. The settings on record: Pseudomonas aeruginosa. Here is the method: as §1, §2, §3
Experiment [4] has as its system APAE006 (strain of P. aeruginosa in which all efflux pumps are inactivated). Nature of the experiment: microbe, parasite or virus in culture. It counts as cell-based. The settings on record: Pseudomonas aeruginosa. The protocol:
as §1, §2, §3

Experiment [5] deals with APAE006 in the presence of 8 micrograms per milliliter of polymyxin B nonapeptide. The class given is cell-based, P. aeruginosa. The following applies: APAE006 with 8 micrograms per milliliter polymyxin B nonapeptide. Here is the method: as §1, §2, §3
Experiment [6] deals with AABA1060 (clinical isolate of Acinetobacter baumannii). Nature of the experiment: MIC broth microdilution, AABA1060. The settings on record: Acinetobacter baumannii, read-out: MIC AABA1060. The class given is cell-based. The protocol: as §1, §2, §3
The subject of experiment [7] is ASAU001 (laboratory strain of S. aureus, ATCC29213). Nature of the experiment: MIC broth microdilution, ASAU001. The settings on record: Staphylococcus aureus, ATCC29213, read-out: MIC ASAU001. The class given is cell-based. Here is the method:
as §1, §2, §3

Where [8] appears, read: ATCC25922, read-out: MIC AECO001.
Where [9] appears, read: ATCC25922, read-out: MIC AECO001 HSA AGP.
Setting [10] is: ATCC27853, read-out: MIC APAE001, APAE001 (ATCC27853).
Where [11] appears, read: read-out: MIC APAE006, APAE006, all efflux pumps inactivated.
The mark [12] stands for this setting: ATCC27853, read-out: MIC APAE001, APAE001 is ATCC27853.
The mark [13] stands for this setting: read-out: MIC APAE006, P. aeruginosa, all efflux pumps inactivated.

In the case of `CC(C)(N)[C@@H](NC(=O)c1ccc(C#Cc2ccc(CNC3CC3)cc2)cc1)C(=O)NO` [Compound 121-2], the MIC is 2 to 16 mg/L (≈ 4.76 to 38 µM) in experiment [1] (setting [8]); 16 to 64 mg/L (≈ 38 to 152 µM) in experiment [1] (setting [9]); 2 to 16 mg/L (≈ 4.76 to 38 µM) in experiment [2]; 16 to 64 mg/L (≈ 38 to 152 µM) in experiment [3] (setting [10]); less than 2 mg/L in experiment [4] (setting [11]); 16 to 64 mg/L (≈ 38 to 152 µM) in experiment [6]. In experiment [7], the MIC fell in the range of 16 to 64 mg/L (≈ 38 to 152 µM). The “MIC APAE006 + PMBN” value in experiment [5] was “A (MIC's of 2.0 μg/mL or less = A)”.

With `CCOCc1ccc(C#Cc2ccc(C(=O)NC(C(=O)NO)C(C)(C)N)cc2)cc1` (stereo not shown) [Compound 126-2], the MIC is less than 2 mg/L in experiment [1] (setting [8]); less than 2 mg/L in experiment [1] (setting [9]); less than 2 mg/L in experiment [2]; 2 to 16 mg/L (≈ 4.88 to 39.1 µM) in experiment [3] (setting [10]); less than 2 mg/L in experiment [4] (setting [11]); less than 2 mg/L in experiment [6]. The MIC in experiment [7] lay in the range of 16 to 64 mg/L (≈ 39.1 to 156 µM). For the same compound, the “MIC APAE006 + PMBN” value in experiment [5] is recorded as “A (MIC's of 2.0 μg/mL or less = A)”.

On to `O=C(NO)[C@@H](Cc1ccccc1)NS(=O)(=O)c1ccc(C#Cc2ccc(CN3CCOCC3)cc2)cc1` [Example 62-4, (R)—N-Hydroxy-2-[4-(4-morpholin-4-ylmethyl-phenylethynyl)-benzenesulfonylamino]-3-phenyl-propionamide], for which the MIC in experiment [1] (setting [8]) is 2 to 16 mg/L (≈ 3.85 to 30.8 µM); in experiment [3] (setting [12]) it was greater than 64 mg/L; in experiment [4] (setting [13]) it was 2 to 16 mg/L (≈ 3.85 to 30.8 µM); in experiment [7], greater than 64 mg/L.

With `O=C(NO)[C@H](COCc1ccccc1)NS(=O)(=O)c1ccc(C#Cc2ccc(CN3CCOCC3)cc2)cc1` [Example 62-5], the MIC in experiment [1] (setting [8]) is 2 to 16 mg/L (≈ 3.64 to 29.1 µM); in experiment [3] (setting [12]), greater than 64 mg/L; in experiment [4] (setting [13]), 16 to 64 mg/L (≈ 29.1 to 116 µM); in experiment [7], greater than 64 mg/L.

As for `O=C(NO)[C@H](Cc1ccccc1)NS(=O)(=O)c1ccc(C#Cc2ccc(CN3CCOCC3)cc2)cc1` [Example 62-6], the MIC is 16 to 64 mg/L (≈ 30.8 to 123 µM) in experiment [1] (setting [8]), greater than 64 mg/L in experiment [3] (setting [12]), 2 to 16 mg/L (≈ 3.85 to 30.8 µM) in experiment [4] (setting [13]) and greater than 64 mg/L in experiment [7].

Turning to `O=C(NO)C1(NS(=O)(=O)c2ccc(C#Cc3ccc(CN4CCOCC4)cc3)cc2)CCCC1` [Example 62-8], the MIC is 16 to 64 mg/L (≈ 33.1 to 132 µM) in experiment [1] (setting [8]), greater than 64 mg/L in experiment [3] (setting [12]), 16 to 64 mg/L (≈ 33.1 to 132 µM) in experiment [4] (setting [13]) and greater than 64 mg/L in experiment [7].

`CSC[C@H](NS(=O)(=O)c1ccc(C#Cc2ccc(CN3CCOCC3)cc2)cc1)C(=O)NO` [Example 62-9]: the MIC in experiment [1] (setting [8]) is 16 to 64 mg/L (≈ 32.7 to 131 µM); in experiment [3] (setting [12]) it was greater than 64 mg/L; in experiment [4] (setting [13]), 2 to 16 mg/L (≈ 4.08 to 32.7 µM); in experiment [7] it was greater than 64 mg/L.

Turning to `O=C(NO)[C@@H]1CCCN1S(=O)(=O)c1ccc(C#Cc2ccc(CN3CCOCC3)cc2)cc1` [Example 62-10], the MIC in experiment [1] (setting [8]) is 2 to 16 mg/L (≈ 4.26 to 34.1 µM); in experiment [3] (setting [12]), greater than 64 mg/L; in experiment [4] (setting [13]), less than 2 mg/L; in experiment [7] it was greater than 64 mg/L.

`O=C(NO)[C@@H]1CCN1S(=O)(=O)c1ccc(C#Cc2ccc(CN3CCOCC3)cc2)cc1` [Example 62-11]: the MIC in experiment [1] (setting [8]) was 2 to 16 mg/L (≈ 4.39 to 35.1 µM); in experiment [3] (setting [12]), greater than 64 mg/L; in experiment [4] (setting [13]) it was less than 2 mg/L; in experiment [7], greater than 64 mg/L.

Take `COc1ccc(C#CC#Cc2ccc(C(=O)N[C@H](C(=O)NO)[C@@H](C)N)cc2)cc1` [Example 82-1, N-((1S,2R)-2-Amino-1-hydroxycarbamoyl-propyl)-4-[4-(4-methoxy-phenyl)-buta-1,3-diynyl]-benzamide]: the MIC is less than 2 mg/L in experiment [1] (setting [8]); 2 to 16 mg/L (≈ 5.11 to 40.9 µM) in experiment [1] (setting [9]); less than 2 mg/L in experiment [2]; 2 to 16 mg/L (≈ 5.11 to 40.9 µM) in experiment [3] (setting [10]); less than 2 mg/L in experiment [4] (setting [11]); 2 to 16 mg/L (≈ 5.11 to 40.9 µM) in experiment [6]. Further, in experiment [7], the MIC fell in the range of 16 to 64 mg/L (≈ 40.9 to 164 µM). Moreover, the “MIC APAE006 + PMBN” value in experiment [5] was “A (MIC's of 2.0 μg/mL or less = A)”.
